Counter-ions that a name gives are not always drawn.
Experiments:
[1] = system: bacterial strains that express the class D cephalosporinase OXA-15; test: Synergy MIC / standard BLI potentiation MIC assay, strains expressing OXA-15; assay type: cell-based, E. coli; conditions: in the presence of a β-lactam; comparator Avibactam (CCC)
Description: (§1) The experimental protocol was performed according to Clinical and Laboratory Standards Institute (CLSI) guidelines with modifications as described below (CLSI guidelines can be derived from the CLSI document M07-A9 published in January 2012: “Methods for Dilution Antimicrobial Susceptibility Tests for Bacteria That Grow Aerobically; Approved Standard-Ninth Edition”).
(§2) To prepare for MIC testing, frozen glycerol stocks of clinical isolates (Klebsiella pneumoniae, Eschericia coli, Enterobacter spp, Citrobacter spp, or Pseudomonas aeruginosa) were used to streak for isolated colonies on rich, non-selective, tryptic soy agar containing 5% sheep's blood (TSAB). Frozen glycerol stocks of laboratory engineered, isogenic E. coli strains, which contain cloned β-lactamase expressing plasmids were used to streak for isolated colonies on rich, selective LB agar supplemented with 25 μg/mL tetracycline to maintain the plasmid. All strains were incubated at 37° C. for 18-24 hrs.
(§3) On the day of testing, primary cultures were started by scraping off 5-10 colonies from the TSAB plates containing clinical strains or the tetracycline supplemented LB plates containing engineered strains. The clinical strain material was suspended in ˜5 mL of cation adjusted Mueller Hinton Broth (CAMHB) in 14 mL culture tubes. The engineered strain material was suspended in CAMHB (supplemented with 25 μg/mL tetracycline) in 14 mL culture tubes. All strains were incubated at 37° C. with aeration (200 rpm) for ˜2 hrs until the optical density at 600 nm (OD600) was >0.1.
(§4) The two compound components of the assay were each diluted in CAMHB and added to the 96-well broth microdilution assay plates. 50 μL of the β-lactam was added to each well of the assay plate in 2-fold dilutions with final concentrations ranging from 128 to 0.13 μg/mL. 25 μL of the BLI compound was added to all wells in the broth microdilution plates at a final concentration of 4 μg/mL. Inoculum cultures were prepared by standardizing the primary cultures to OD600=0.1 and then adding 20 μL of the adjusted primary culture per 1 mL CAMHB for clinical strains or CAMHB (supplemented with tetracycline at 100 μg/mL) for engineered strains, so that the final inoculum density was ˜10^5 colony forming units per milliliter. Diluted inoculum cultures were used to inoculate 25 μl, per well in 96-well broth microdilution assay plates. The final volume of each well was 100 μL and contained a β-lactam at different concentrations, a BLI compound at 4 μg/mL concentration, the bacterial culture at an OD600 of approximately 0.001 and when necessary tetracycline at 25 μg/mL.
(§5) Plates were incubated for 18-20 hours at 37° C. with aeration (200 rpm). Following incubation, growth was confirmed visually placing plates over a viewing apparatus (stand with a mirror underneath) and then OD600 was measured using a SpectraMax 340PC384 plate reader (Molecular Devices, Sunnyvale, Calif.). Growth was defined as turbidity that could be detected with the naked eye or achieving minimum OD600 of 0.1. MIC values were defined as the lowest concentration producing no visible turbidity.
The synergy MIC (sMIC) assay determines the concentration of the BLI required to potentiate the activity of a fixed concentration of a β-lactam antibiotic against β-lactamase producing bacterial strains. […]

[2] = system: bacterial strains that express KPC β-lactamases; test: Synergy MIC / standard BLI potentiation MIC assay, strains expressing KPC β-lactamases; assay type: cell-based; conditions: at least one KPC strain and/or better spectrum; in the presence of a β-lactam
Description: as §1, §2, §3, §4, §5
The synergy MIC (sMIC) assay determines the concentration of the BLI required to potentiate the activity of a fixed concentration of a β-lactam antibiotic against β-lactamase producing bacterial strains. The experimental protocol was performed according to Clinical and Laboratory Standards Institute (CLSI) guidelines with modifications as described below (CLSI guidelines can be derived from the CLSI document M07-A9 published in January 2012: “Methods for Dilution Antimicrobial Susceptibility Tests for Bacteria That Grow Aerobically; Approved Standard-Ninth Edition”). […]

[3] = target: KPC-2 β-lactamase (Klebsiella pneumoniae, UniProt Q9F663); test: Inhibition kinetics of KPC-2 with nitrocefin as reporter substrate; assay type: biochemical, K. pneumoniae; conditions: KPC-2, 100 μM nitrocefin, 1×PBS pH 7.4, 25° C.
Chain of KPC-2 β-lactamase (Q9F663 25-293 limits assumed): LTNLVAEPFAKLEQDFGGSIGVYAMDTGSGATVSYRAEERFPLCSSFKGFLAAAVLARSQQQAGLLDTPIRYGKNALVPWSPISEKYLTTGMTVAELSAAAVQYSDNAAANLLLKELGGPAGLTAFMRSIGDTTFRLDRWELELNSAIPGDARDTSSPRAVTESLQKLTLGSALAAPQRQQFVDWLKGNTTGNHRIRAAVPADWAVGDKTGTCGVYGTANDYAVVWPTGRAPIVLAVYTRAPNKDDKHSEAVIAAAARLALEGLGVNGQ
Description: Inhibition or inactivation of KPC-2 by test inhibitors was assessed using 100 μM nitrocefin (NCF) as a reporter substrate. Assays were performed in 1×PBS pH 7.4, 0.1 mg/ml BSA, in 96-well half area plates, 50 μl reaction volume. NCF was dissolved in DMSO and diluted in assay buffer. Test inhibitors were dissolved in water or DMSO and serially diluted in the assay with final concentrations between […] The enzyme activity in the presence of varying concentrations of test inhibitor was determined by monitoring the hydrolysis of NCF spectrophotometrically at 486 nm, for 5 minutes, 25° C., using a SpectraMax Plus384 microplate reader with SoftMax Pro software (Molecular Devices). Data analysis was performed using GraphPad Prism (GraphPad Software, Inc.).
Progress curves were fit to a first-order rate decay equation (Eq. 1) to determine kobserved (kobs).
kobs vs. inhibitor concentration [I] curves were then fit to Eq.2 to determine the inhibitor dissociation constant (K) and the first order rate constant of enzyme inactivation at infinite inhibitor concentration (kinact). […] Yt=V0*(1−e^(−kobs^*t))/kobs Eq. 1 Where Y is the absorbance at time t, Vo is the uninhibited enzyme velocity, kobs is the observed rate constant of the enzyme inactivation. kobs=kinact*[I]/([I]+K(1+S/Km)) Eq. 2 Where S is the NCF concentration, Km is the KPC-2 Km for NCF

Row | SMILES | activity against bacterial strains that express OXA-15, compared with Avibactam [1] | activity and/or spectrum of activity against bacterial strains that express KPC β-lactamases, compared with Avibactam [2] | inactivation efficiency (kinact/K) [3]
1 | N=C(N)NCC(O)c1cc([C@@H]2CC[C@@H]3CN2C(=O)N3OS(=O)(=O)O)no1 (single isomer, unassigned) [Compound 611, (2S,5R)-2-(5-((R*)-2-guanidino-1-hydroxyethyl)isoxazol-3-yl)-7-oxo-1,6-diazabicyclo[3.2.1]octan-6-yl hydrogen sulfate] | more active than Avibactam | more active than Avibactam | –
2 | NCCc1cc([C@@H]2CC[C@@H]3CN2C(=O)N3OS(=O)(=O)O)no1 [Compound 602, (2S,5R)-2-(5-(2-aminoethyl)isoxazol-3-yl)-7-oxo-1,6-diazabicyclo[3.2.1]octan-6-yl hydrogen sulfate] | – | more active than Avibactam | 1-99 mM^−s^−1
3 | N=C(N)NCc1cc([C@@H]2CC[C@@H]3CN2C(=O)N3OS(=O)(=O)O)no1 [Compound 603, (2S,5R)-2-(5-(guanidinomethyl)isoxazol-3-yl)-7-oxo-1,6-diazabicyclo[3.2.1]octan-6-yl hydrogen sulfate] | more active than Avibactam | more active than Avibactam | –
4 | N=C(N)NCCc1cc([C@@H]2CC[C@@H]3CN2C(=O)N3OS(=O)(=O)O)no1 [Compound 604, (2S,5R)-2-(5-(2-guanidinoethyl)isoxazol-3-yl)-7-oxo-1,6-diazabicyclo[3.2.1]octan-6-yl hydrogen sulfate] | more active than Avibactam | more active than Avibactam | –
5 | CN(Cc1cc([C@@H]2CC[C@@H]3CN2C(=O)N3OS(=O)(=O)O)no1)C(=N)N [Compound 614, (2S,5R)-2-(5-((1-methylguanidino)methyl)isoxazol-3-yl)-7-oxo-1,6-diazabicyclo[3.2.1]octan-6-yl hydrogen sulfate] | more active than Avibactam | more active than Avibactam | –
6 | N=C(N)N[C@H]1C[C@@H](c2cc([C@@H]3CC[C@@H]4CN3C(=O)N4OS(=O)(=O)O)no2)C1 [Compound 617, (2S,5R)-2-(5-((1s,3R)-3-guanidinocyclobutyl)isoxazol-3-yl)-7-oxo-1,6-diazabicyclo[3.2.1]octan-6-yl hydrogen sulfate] | – | more active than Avibactam | –
7 | O=C1N2C[C@@H](CC[C@H]2c2cc(CC3CNC3)on2)N1OS(=O)(=O)O [Compound 618, (2S,5R)-2-(5-(azetidin-3-ylmethyl)isoxazol-3-yl)-7-oxo-1,6-diazabicyclo[3.2.1]octan-6-yl hydrogen sulfate] | more active than Avibactam | more active than Avibactam | –
8 | NCCNCCc1cc([C@@H]2CC[C@@H]3CN2C(=O)N3OS(=O)(=O)O)no1 [Compound 620, (2S,5R)-2-(5-(2-((2-aminoethyl)amino)ethyl)isoxazol-3-yl)-7-oxo-1,6-diazabicyclo[3.2.1]octan-6-yl hydrogen sulfate] | – | more active than Avibactam | –
9 | N=C(N)NCCNCCc1cc([C@@H]2CC[C@@H]3CN2C(=O)N3OS(=O)(=O)O)no1 [Compound 621, (2S,5R)-2-(5-(2-((2-guanidinoethyl)amino)ethyl)isoxazol-3-yl)-7-oxo-1,6-diazabicyclo[3.2.1]octan-6-yl hydrogen sulfate] | – | more active than Avibactam | –
10 | O=C1N2C[C@@H](CC[C@H]2c2cc(CNC3CNC3)on2)N1OS(=O)(=O)O [Compound 622, (2S,5R)-2-(5-((azetidin-3-ylamino)methyl)isoxazol-3-yl)-7-oxo-1,6-diazabicyclo[3.2.1]octan-6-yl hydrogen sulfate] | – | more active than Avibactam | –
11 | O=C1N2C[C@@H](CC[C@H]2c2cc(CCNC3CNC3)on2)N1OS(=O)(=O)O [Compound 623, (2S,5R)-2-(5-(2-(azetidin-3-ylamino)ethyl)isoxazol-3-yl)-7-oxo-1,6-diazabicyclo[3.2.1]octan-6-yl hydrogen sulfate] | – | more active than Avibactam | –
12 | O=C1N2C[C@@H](CC[C@H]2c2cc(COC3CNC3)on2)N1OS(=O)(=O)O [Compound 624, (2S,5R)-2-(5-((azetidin-3-yloxy)methyl)isoxazol-3-yl)-7-oxo-1,6-diazabicyclo[3.2.1]octan-6-yl hydrogen sulfate] | – | more active than Avibactam | –
13 | O=C1N2C[C@@H](CC[C@H]2c2cc(CC3CCNCC3)on2)N1OS(=O)(=O)O [Compound 627, (2S,5R)-7-oxo-2-(5-(piperidin-4-ylmethyl)isoxazol-3-yl)-1,6-diazabicyclo[3.2.1]octan-6-yl hydrogen sulfate] | – | more active than Avibactam | –

Reference: patent publication US8927724B2, “Isoxazole beta-lactamase inhibitors” (priority 2012, dated 2015)
